Test results from PubChem BioAssay AID2060615 (Molecular Pharmacology Branch, DTP, NCI, 2025).

System: 496974-208-R-J2-PDC complex spheroids, growth % test/control
Experiment: Anticancer human tumor 496974-208-R-J2-PDC patient-derived pancreatic carcinoma cell line growth inhibition [CLK]
Conditions: for IC50: curve of first compound; for viability, T/C: stronger effect = lower value
Method in brief: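 Multi-cell-type spheroids combined patient-derived tumor cells with HUVEC endothelial cells and human mesenchymal stem cells. Paired agents were dosed in half-log steps down from about clinical Cmax, or from 10 microM where Cmax was unknown.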

[1] = second compound 0.0316 µM, first compound 0.0316 µM
[2] = second compound 0.0316 µM, first compound 0.1 µM
[3] = second compound 0.0316 µM, first compound 0.316 µM
[4] = second compound 0.0316 µM, first compound 1 µM
[5] = second compound 0.1 µM, first compound 0.0316 µM
[6] = second compound 0.1 µM, first compound 0.1 µM
[7] = second compound 0.1 µM, first compound 0.316 µM
[8] = second compound 0.1 µM, first compound 1 µM
[9] = second compound 0.316 µM, first compound 0.0316 µM
[10] = second compound 0.316 µM, first compound 0.1 µM
[11] = second compound 0.316 µM, first compound 0.316 µM
[12] = second compound 0.316 µM, first compound 1 µM
[13] = second compound 1 µM, first compound 0.0316 µM
[14] = second compound 1 µM, first compound 0.1 µM
[15] = second compound 1 µM, first compound 0.316 µM
[16] = second compound 1 µM, first compound 1 µM
[17] = second compound 3.16 µM, first compound 0.0316 µM
[18] = second compound 3.16 µM, first compound 0.1 µM
[19] = second compound 3.16 µM, first compound 0.316 µM
[20] = second compound 3.16 µM, first compound 1 µM
[21] = second compound 10 µM, first compound 0.0316 µM
[22] = second compound 10 µM, first compound 0.1 µM
[23] = second compound 10 µM, first compound 0.316 µM
[24] = second compound 10 µM, first compound 1 µM
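Note: spheroids exposed to the drugs for 7 days before readout.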
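Throughout, for viability, T/C: 100% = DMSO vehicle control wells.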

SMILES: C=CC(=O)Nc1cc(Nc2nccc(-c3cn(C)c4ccccc34)n2)c(OC)cc1N(C)CCN(C)C + CN1CCN(c2cc(C(=O)Nc3cc4cc(-c5cnn(C)c5)ccc4cn3)ccn2)CC1
- IC50 (second compound 0.0316 µM): > 300 nM
- IC50 (second compound 0.1 µM): > 300 nM
- IC50 (second compound 0.316 µM): < 0.949 nM
- IC50 (second compound 1 µM): < 0.949 nM
- IC50 (second compound 3.16 µM): < 0.949 nM
- IC50 (second compound 10 µM): < 0.949 nM
- viability, T/C (second compound 0.0316 µM, first compound 0.000949 µM): 104%
- viability, T/C (second compound 0.0316 µM, first compound 0.003 µM): 100%
- viability, T/C (second compound 0.0316 µM, first compound 0.00949 µM): 94.9%
- viability, T/C (second compound 0.0316 µM, first compound 0.03 µM): 86.5%
- viability, T/C (second compound 0.0316 µM, first compound 0.0949 µM): 85.7%
- viability, T/C (second compound 0.0316 µM, first compound 0.3 µM): 60.6%
- viability, T/C (second compound 0.1 µM, first compound 0.000949 µM): 77.1%
- viability, T/C (second compound 0.1 µM, first compound 0.003 µM): 86.2%
- viability, T/C (second compound 0.1 µM, first compound 0.00949 µM): 80.8%
- viability, T/C (second compound 0.1 µM, first compound 0.03 µM): 74.3%
- viability, T/C (second compound 0.1 µM, first compound 0.0949 µM): 70.8%
- viability, T/C (second compound 0.1 µM, first compound 0.3 µM): 50%
- viability, T/C (second compound 0.316 µM, first compound 0.000949 µM): 6.91%
- viability, T/C (second compound 0.316 µM, first compound 0.003 µM): 7.98%
- viability, T/C (second compound 0.316 µM, first compound 0.00949 µM): 5.85%
- viability, T/C (second compound 0.316 µM, first compound 0.03 µM): 4.61%
- viability, T/C (second compound 0.316 µM, first compound 0.0949 µM): 6.12%
- viability, T/C (second compound 0.316 µM, first compound 0.3 µM): 4.42%
- viability, T/C (second compound 1 µM, first compound 0.000949 µM): 0.32%
- viability, T/C (second compound 1 µM, first compound 0.003 µM): 0.55%
- viability, T/C (second compound 1 µM, first compound 0.00949 µM): 1.29%
- viability, T/C (second compound 1 µM, first compound 0.03 µM): 0.51%
- viability, T/C (second compound 1 µM, first compound 0.0949 µM): 2.8%
- viability, T/C (second compound 1 µM, first compound 0.3 µM): 0.65%
- viability, T/C (second compound 3.16 µM, first compound 0.000949 µM): 0.42%
- viability, T/C (second compound 3.16 µM, first compound 0.003 µM): 1.96%
- viability, T/C (second compound 3.16 µM, first compound 0.00949 µM): 1.14%
- viability, T/C (second compound 3.16 µM, first compound 0.03 µM): 0.42%
- viability, T/C (second compound 3.16 µM, first compound 0.0949 µM): 2.24%
- viability, T/C (second compound 3.16 µM, first compound 0.3 µM): 1.33%
- viability, T/C (second compound 10 µM, first compound 0.000949 µM): 0.31%
- viability, T/C (second compound 10 µM, first compound 0.003 µM): 0.31%
- viability, T/C (second compound 10 µM, first compound 0.00949 µM): 0.31%
- viability, T/C (second compound 10 µM, first compound 0.03 µM): 0.85%
- viability, T/C (second compound 10 µM, first compound 0.0949 µM): 2.25%
- viability, T/C (second compound 10 µM, first compound 0.3 µM): 2.99%

SMILES: CCN1CCN(Cc2ccc(Nc3ncc(F)c(-c4cc(F)c5nc(C)n(C(C)C)c5c4)n3)nc2)CC1 + CN1CCN(c2cc(C(=O)Nc3cc4cc(-c5cnn(C)c5)ccc4cn3)ccn2)CC1
- IC50 (second compound 0.0316 µM): > 1000 nM
- IC50 (second compound 0.1 µM): > 1000 nM
- IC50 (second compound 0.316 µM): < 3.16 nM
- IC50 (second compound 1 µM): < 3.16 nM
- IC50 (second compound 3.16 µM): < 3.16 nM
- IC50 (second compound 10 µM): < 3.16 nM
- viability, T/C (second compound 0.0316 µM, first compound 0.00316 µM): 90.4%
- viability, T/C (second compound 0.0316 µM, first compound 0.01 µM): 87.9%
- viability, T/C [1]: 78.6%
- viability, T/C [2]: 81%
- viability, T/C [3]: 76.2%
- viability, T/C [4]: 87.7%
- viability, T/C (second compound 0.1 µM, first compound 0.00316 µM): 79.5%
- viability, T/C (second compound 0.1 µM, first compound 0.01 µM): 73%
- viability, T/C [5]: 72.8%
- viability, T/C [6]: 72.9%
- viability, T/C [7]: 68.2%
- viability, T/C [8]: 70.6%
- viability, T/C (second compound 0.316 µM, first compound 0.00316 µM): 6.01%
- viability, T/C (second compound 0.316 µM, first compound 0.01 µM): 10.2%
- viability, T/C [9]: 8.8%
- viability, T/C [10]: 11.3%
- viability, T/C [11]: 13.7%
- viability, T/C [12]: 9.83%
- viability, T/C (second compound 1 µM, first compound 0.00316 µM): 0.34%
- viability, T/C (second compound 1 µM, first compound 0.01 µM): 0.41%
- viability, T/C [13]: 0.41%
- viability, T/C [14]: 0.39%
- viability, T/C [15]: 0.77%
- viability, T/C [16]: 2.79%
- viability, T/C (second compound 3.16 µM, first compound 0.00316 µM): 0.34%
- viability, T/C (second compound 3.16 µM, first compound 0.01 µM): 1.89%
- viability, T/C [17]: 1.33%
- viability, T/C [18]: 0.51%
- viability, T/C [19]: 1.22%
- viability, T/C [20]: 4.6%
- viability, T/C (second compound 10 µM, first compound 0.00316 µM): 0.22%
- viability, T/C (second compound 10 µM, first compound 0.01 µM): 0.34%
- viability, T/C [21]: 0.36%
- viability, T/C [22]: 0.29%
- viability, T/C [23]: 1.36%
- viability, T/C [24]: 2.46%

SMILES: Nc1ccccc1NC(=O)c1ccc(CNC(=O)OCc2cccnc2)cc1 + CN1CCN(c2cc(C(=O)Nc3cc4cc(-c5cnn(C)c5)ccc4cn3)ccn2)CC1
- IC50 (second compound 0.0316 µM): 4300 nM
- IC50 (second compound 0.1 µM): 4370 nM
- IC50 (second compound 0.316 µM): < 31.6 nM
- IC50 (second compound 1 µM): < 31.6 nM
- IC50 (second compound 3.16 µM): < 31.6 nM
- IC50 (second compound 10 µM): < 31.6 nM
- viability, T/C [1]: 105%
- viability, T/C [2]: 101%
- viability, T/C [3]: 94.3%
- viability, T/C [4]: 81.4%
- viability, T/C (second compound 0.0316 µM, first compound 3.16 µM): 73.2%
- viability, T/C (second compound 0.0316 µM, first compound 10 µM): 0.89%
- viability, T/C [5]: 77.5%
- viability, T/C [6]: 78.9%
- viability, T/C [7]: 80.3%
- viability, T/C [8]: 69.2%
- viability, T/C (second compound 0.1 µM, first compound 3.16 µM): 69.4%
- viability, T/C (second compound 0.1 µM, first compound 10 µM): 0.6%
- viability, T/C [9]: 6.28%
- viability, T/C [10]: 4.96%
- viability, T/C [11]: 4.64%
- viability, T/C [12]: 3.64%
- viability, T/C (second compound 0.316 µM, first compound 3.16 µM): 2.12%
- viability, T/C (second compound 0.316 µM, first compound 10 µM): 0.13%
- viability, T/C [13]: 0.53%
- viability, T/C [14]: 0.32%
- viability, T/C [15]: 0.35%
- viability, T/C [16]: 0.18%
- viability, T/C (second compound 1 µM, first compound 3.16 µM): 0.21%
- viability, T/C (second compound 1 µM, first compound 10 µM): 0.21%
- viability, T/C [17]: 0.5%
- viability, T/C [18]: 0.4%
- viability, T/C [19]: 0.39%
- viability, T/C [20]: 0.21%
- viability, T/C (second compound 3.16 µM, first compound 3.16 µM): 0.2%
- viability, T/C (second compound 3.16 µM, first compound 10 µM): 1.32%
- viability, T/C [21]: 0.22%
- viability, T/C [22]: 0.23%
- viability, T/C [23]: 0.27%
- viability, T/C [24]: 0.22%
- viability, T/C (second compound 10 µM, first compound 3.16 µM): 0.24%
- viability, T/C (second compound 10 µM, first compound 10 µM): 1.53%
